Laboratory results reported in the CheMixHub ionic liquid set.

Test: xn = mol fraction of the nth substance listed

C[C@@H](O)[C@H](N)C(=O)O + CCCC[n+]1ccn(C)c1.[Br-] + O
viscosity [mPa·s], 101.3 kPa
Conditions	x1 = 0.0003603, x2 = 0	x1 = 0.0007221, x2 = 0	x1 = 0.001078, x2 = 0	x1 = 0.001438, x2 = 0	x1 = 0.001779, x2 = 0	x1 = 0.002158, x2 = 0	x1 = 0.002516, x2 = 0
293.15 K	1.009	1.016	1.023	1.03	1.037	1.044	1.051
298.15 K	0.897	0.904	0.911	0.918	0.925	0.933	0.94
303.15 K	0.804	0.811	0.818	0.825	0.833	0.84	0.847
308.15 K	0.727	0.734	0.741	0.748	0.755	0.763	0.77
313.15 K	0.661	0.668	0.675	0.682	0.689	0.697	0.704

F[B-](F)(F)F.[Li+] + CCCC[n+]1ccn(C)c1.[I-]
electrical conductivity [S/m], 101 kPa
Conditions	298.15 K	308.15 K	323.15 K
x1 = 0.1	–	0.0454	–
x1 = 0.2	0.0449	–	0.079

CCCCCC[n+]1ccn(C)c1.F[B-](F)(F)F + CCCN
Conditions	viscosity [mPa·s]
298.15 K, 101 kPa, x2 = 0	171.8

COP(=O)([O-])OC.Cn1cc[n+](C)c1 + CCCO
101 kPa
Conditions	viscosity [mPa·s]
293.15 K, x2 = 0.3018	116.9
298.15 K, x2 = 0	291
303.15 K, x2 = 0.1993	115.9
303.15 K, x2 = 0.5002	34.18
303.15 K, x2 = 0.5996	21.48
308.15 K, x2 = 0.1993	90.1
313.15 K, x2 = 0.5996	15.82
318.15 K, x2 = 0.098	74.8
318.15 K, x2 = 0.4	30.15
318.15 K, x2 = 0.5002	20.5
323.15 K, x2 = 0.3018	33.41
323.15 K, x2 = 0.5996	12.11
323.15 K, x2 = 0.799	4.88

COP(=O)([O-])OC.Cn1cc[n+](C)c1 + CCCO + O
100 kPa
Conditions	viscosity [mPa·s]
298.15 K, x2 = 0.249, x3 = 0.2451	90
323.15 K, x2 = 0.15, x3 = 0.1498	81
333.15 K, x2 = 0.1, x3 = 0.0998	85

CC(=O)[O-].CCCC[N+](CCCC)(CCCC)CCCC + CCCOCC(C)O
electrical conductivity [S/m], 101 kPa
Conditions	x1 = 0.006949	x1 = 0.008744	x1 = 0.02598	x1 = 0.03298	x1 = 0.06584	x1 = 0.09163	x1 = 0.1232	x1 = 0.1599	x1 = 0.2312
248.15 K	0.000652	0.000811	0.00218	0.00267	0.00439	0.00514	0.00547	0.00531	0.0042
258.15 K	0.00115	0.00143	0.00399	0.00493	0.00847	0.01022	0.01125	0.01128	0.00942
268.15 K	0.00182	0.00229	0.00661	0.00825	0.01473	0.01821	0.02062	0.02133	0.01883
278.15 K	0.00269	0.0034	0.01016	0.01277	0.02353	0.02971	0.03448	0.03666	0.03401
288.15 K	0.00374	0.00478	0.01461	0.01849	0.03502	0.04505	0.05341	0.05816	0.05632
298.15 K	0.00498	0.00635	0.01995	0.02547	0.04947	0.06468	0.07808	0.08671	0.08711
308.15 K	0.00637	0.00816	0.02625	0.03367	0.06676	0.08851	0.1086	0.1227	0.1274
313.15 K	0.0071	0.00913	0.02965	0.03815	0.07641	0.1011	0.126	0.1436	0.1513

COP(=O)([O-])OC.Cn1cc[n+](C)c1 + CCO
Conditions	viscosity [mPa·s]
293.15 K, 100 kPa, x1 = 0.1005	3.24
293.15 K, 100 kPa, x1 = 0.797	160.9
293.15 K, 101 kPa, x2 = 0.5028	37.73
293.15 K, 101 kPa, x2 = 0.6	24.37
293.15 K, 101 kPa, x2 = 0.7999	6.29
293.15 K, 101 kPa, x2 = 0.9	3.118
298.15 K, 100 kPa, x1 = 0.7009	84.1
298.15 K, 100 kPa, x1 = 0.8995	169.2
298.15 K, 101 kPa, x1 = 0.2011	5.8
298.15 K, 101 kPa, x1 = 0.5056	36.2
298.15 K, 101 kPa, x1 = 0.8017	132.7
298.15 K, 101 kPa, x2 = 0.4074	60.9
298.15 K, 101 kPa, x2 = 0.6	21.18
303.15 K, 100 kPa, x1 = 0.1005	2.62
303.15 K, 100 kPa, x1 = 0.2006	5.25
303.15 K, 100 kPa, x1 = 0.3005	9.92
303.15 K, 101 kPa, x2 = 0.0999	173.7
303.15 K, 101 kPa, x2 = 0.7999	5.01
308.15 K, 100 kPa, x1 = 0.8995	94.2
308.15 K, 100 kPa, x1 = 1	123.3
308.15 K, 101 kPa, x2 = 0.5028	21.92
308.15 K, 101 kPa, x2 = 0.6992	9.29
313.15 K, 100 kPa, x1 = 0.4031	12.72
313.15 K, 100 kPa, x1 = 0.797	54.3
313.15 K, 101 kPa, x1 = 0.2011	4.2
313.15 K, 101 kPa, x1 = 0.5056	21.2
313.15 K, 101 kPa, x1 = 0.8017	60.8
318.15 K, 100 kPa, x1 = 0.3005	7.04
318.15 K, 100 kPa, x1 = 0.7009	33.29
318.15 K, 100 kPa, x1 = 1	72.2
318.15 K, 101 kPa, x2 = 0	92.8
318.15 K, 101 kPa, x2 = 0.7999	3.702
323.15 K, 100 kPa, x1 = 0.3005	6.41
323.15 K, 100 kPa, x1 = 0.7009	27.5
323.15 K, 100 kPa, x1 = 0.797	35.24
323.15 K, 100 kPa, x1 = 0.8995	45.63
323.15 K, 101 kPa, x2 = 0.0999	63.7
323.15 K, 101 kPa, x2 = 0.9	1.819
328.15 K, 100 kPa, x1 = 0.4996	12.51
328.15 K, 100 kPa, x1 = 0.797	29.03
333.15 K, 100 kPa, x1 = 0.1005	1.36
333.15 K, 100 kPa, x1 = 0.3005	5.46
333.15 K, 100 kPa, x1 = 0.7009	19.59
333.15 K, 100 kPa, x1 = 0.8995	30.39
333.15 K, 101 kPa, x1 = 0.2011	2.9
333.15 K, 101 kPa, x1 = 0.5056	11.9
333.15 K, 101 kPa, x1 = 0.8017	28
338.15 K, 100 kPa, x1 = 0.4996	9.9

CCC[NH3+].O=[N+]([O-])[O-] + CC[NH3+].O=[N+]([O-])[O-]
101 kPa, frequency 0.00293 MHz, x2 = 0.5
Conditions	electrical conductivity [S/m]
293.15 K	1.2
303.15 K	1.67
318.15 K	2.53

101 kPa, x2 = 0.5
Conditions	viscosity [mPa·s]
293.15 K	64.5
303.15 K	44.1
318.15 K	27.1
353.15 K	11.5

O=[N+]([O-])[O-].[Li+] + CC[NH3+].O=[N+]([O-])[O-]
Conditions	electrical conductivity [S/m]	viscosity [mPa·s]
223 K, 100 kPa, x1 = 0.09755	0.01	–
223 K, 100 kPa, x1 = 0.1778	0.005	–
233 K, 100 kPa, x1 = 0.09755	0.039	–
233 K, 100 kPa, x1 = 0.1778	0.022	–
243 K, 100 kPa, x1 = 0.09755	0.104	–
243 K, 100 kPa, x1 = 0.1778	0.065	–
253 K, 100 kPa, x1 = 0.09755	0.224	–
253 K, 100 kPa, x1 = 0.1778	0.151	–
263 K, 100 kPa, x1 = 0.09755	0.414	–
263 K, 100 kPa, x1 = 0.1778	0.295	–
273 K, 100 kPa, x1 = 0.09755	0.682	–
273 K, 100 kPa, x1 = 0.1778	0.512	–
283 K, 100 kPa, x1 = 0.09755	1.03	–
283 K, 100 kPa, x1 = 0.1778	0.81	–
288.15 K, 100 kPa, x1 = 0.09755	–	56.2
288.15 K, 100 kPa, x1 = 0.1778	–	68.6
293 K, 100 kPa, x1 = 0.09755	1.47	–
293 K, 100 kPa, x1 = 0.1778	1.19	–
293.15 K, 100 kPa, x1 = 0.09755	–	46.97
293.15 K, 100 kPa, x1 = 0.1778	–	56.13
298.15 K, 100 kPa, x1 = 0.09755	–	39.49
298.15 K, 100 kPa, x1 = 0.1778	–	46.25
298.15 K, 101 kPa, x2 = 0.8222	–	68.1
303 K, 100 kPa, x1 = 0.09755	1.99	–
303 K, 100 kPa, x1 = 0.1778	1.67	–
303.15 K, 100 kPa, x1 = 0.09755	–	33.4
303.15 K, 100 kPa, x1 = 0.1778	–	38.36
308.15 K, 100 kPa, x1 = 0.09755	–	28.4
308.15 K, 100 kPa, x1 = 0.1778	–	32.01
313 K, 100 kPa, x1 = 0.09755	2.58	–
313 K, 100 kPa, x1 = 0.1778	2.22	–
313.15 K, 100 kPa, x1 = 0.09755	–	24.27
313.15 K, 100 kPa, x1 = 0.1778	–	26.86
323 K, 100 kPa, x1 = 0.09755	3.23	–
323 K, 100 kPa, x1 = 0.1778	2.86	–
333 K, 100 kPa, x1 = 0.09755	3.95	–
333 K, 100 kPa, x1 = 0.1778	3.58	–
343 K, 100 kPa, x1 = 0.09755	4.73	–
343 K, 100 kPa, x1 = 0.1778	4.36	–
353 K, 100 kPa, x1 = 0.09755	5.54	–
353 K, 100 kPa, x1 = 0.1778	5.21	–
363 K, 100 kPa, x1 = 0.09755	6.4	–
363 K, 100 kPa, x1 = 0.1778	6.11	–
373 K, 100 kPa, x1 = 0.09755	7.29	–
373 K, 100 kPa, x1 = 0.1778	7.06	–
